Reference: ChEMBL document CHEMBL3217550, “Synthesis and synergistic antimycobacterial screening of chlorpromazine and its metabolites” (2014)
≈ marks a conversion by molar mass, not a printed value.

Key:
Type in all cases: functional
[1] = test system: Mycolicibacterium smegmatis; experiment: Antimycobacterial against Mycobacterium smegmatis
[2] = test system: Mycolicibacterium smegmatis; experiment: Antimycobacterial against Mycobacterium smegmatis in presence of streptomycin
[3] = test system: Mycolicibacterium smegmatis; experiment: Antimycobacterial against Mycobacterium smegmatis in presence of rifampicin
[4] = test system: Mycolicibacterium smegmatis; experiment: Antimycobacterial against Mycobacterium smegmatis in presence of kanamycin
[5] = test system: Mycolicibacterium smegmatis; experiment: Antimycobacterial against Mycobacterium smegmatis in presence of spectinomycin
[6] = test system: Mycolicibacterium smegmatis; experiment: Antimycobacterial against Mycobacterium smegmatis in presence of 25-desacetylrifampicin
[7] = test system: Mycolicibacterium smegmatis; experiment: Antimycobacterial against Mycobacterium smegmatis in presence of chlorpromazine
[8] = test system: Mycolicibacterium smegmatis; experiment: Antimycobacterial against Mycobacterium smegmatis in presence of TMC207
[9] = test system: Mycolicibacterium smegmatis; experiment: Antimycobacterial against Mycobacterium smegmatis in presence of ciprofloxacin

## CN[C@@H]1[C@H](O[C@H]2[C@H](O[C@H]3[C@H](O)[C@@H](O)[C@H](N=C(N)N)[C@@H](O)[C@@H]3N=C(N)N)O[C@@H](C)[C@]2(O)C=O)O[C@@H](CO)[C@H](O)[C@H]1O [STREPTOMYCIN]
[1]
  MIC99: 0.07 µM (≈ 0.0407 µg/mL)

## CNCCCN1c2ccccc2[S+]([O-])c2ccc(Cl)cc21 (configuration not stated)
[1]
  MIC99: > 2080 µM

## CN(C)CCCN1c2ccccc2[S+]([O-])c2ccc(Cl)cc21 (configuration not stated) [CHLOROPROMAZINE SULFOXIDE]
[1]
  MIC99: > 1990 µM

## C[N+](C)([O-])CCCN1c2ccccc2Sc2ccc(Cl)cc21
[2]
  fractional inhibitory concentration index (FICI): 0.74
[3]
  fractional inhibitory concentration index (FICI): 1
[4]
  fractional inhibitory concentration index (FICI): 1
[1]
  MIC99: 995 µM (≈ 333 µg/mL)
[5]
  fractional inhibitory concentration index (FICI): 0.63
[6]
  fractional inhibitory concentration index (FICI): 0.75

## CNCCCN1c2ccccc2Sc2ccc(Cl)cc21 [NOR1-CHLORPROMAZINE]
[2]
  fractional inhibitory concentration index (FICI): 0.49
[3]
  fractional inhibitory concentration index (FICI): 0.5
[4]
  fractional inhibitory concentration index (FICI): 0.5
[1]
  MIC99: 63.3 µM (≈ 19.3 µg/mL)
[5]
  fractional inhibitory concentration index (FICI): 0.31
[7]
  fractional inhibitory concentration index (FICI): 0.75
[6]
  fractional inhibitory concentration index (FICI): 0.5

## CCn1cc(C(=O)O)c(=O)c2ccc(C)nc21 [NALIDIXIC ACID]
[1]
  MIC99: 1440 µM (≈ 333 µg/mL)

## C[C@H]1COc2c(N3CCN(C)CC3)c(F)cc3c(=O)c(C(=O)O)cn1c23 [LEVOFLOXACIN]
[1]
  MIC99: 0.58 µM (≈ 0.21 µg/mL)

## COc1nc2ccc(Br)cc2cc1[C@@H](c1ccccc1)[C@@](O)(CCN(C)C)c1cccc2ccccc12 [BEDAQUILINE]
[1]
  MIC99: 0.05 µM (≈ 0.0278 µg/mL)

## CN(C)CCCN1c2ccccc2Sc2ccc(Cl)cc21 [CHLORPROMAZINE]
[2]
  fractional inhibitory concentration index (FICI): 0.79
[8]
  fractional inhibitory concentration index (FICI): 0.7
[3]
  fractional inhibitory concentration index (FICI): 0.63
[4]
  fractional inhibitory concentration index (FICI): 1
[1]
  MIC99: 58.6 µM (≈ 18.7 µg/mL)
[5]
  fractional inhibitory concentration index (FICI): 0.31
[9]
  fractional inhibitory concentration index (FICI): 0.73
[6]
  fractional inhibitory concentration index (FICI): 0.5

## C[N+](C)([O-])CCCN1c2ccccc2[S+]([O-])c2ccc(Cl)cc21 (configuration not stated)
[1]
  MIC99: > 1900 µM

## CC[C@@H](CO)NCCN[C@@H](CC)CO [ETHAMBUTOL]
[1]
  MIC99: 0.76 µM (≈ 0.155 µg/mL)

## NC[C@H]1O[C@H](O[C@H]2[C@H](O)[C@@H](O[C@H]3O[C@H](CO)[C@@H](O)[C@H](N)[C@H]3O)[C@H](N)C[C@@H]2N)[C@H](O)[C@@H](O)[C@@H]1O [KANAMYCIN]
[1]
  MIC99: 1.76 µM (≈ 0.853 µg/mL)

## CN[C@@H]1[C@H](O)[C@H](NC)[C@H]2O[C@@]3(O)C(=O)C[C@@H](C)O[C@H]3O[C@@H]2[C@H]1O [SPECTINOMYCIN]
[1]
  MIC99: 84.1 µM (≈ 28 µg/mL)

## CN(C)CCCN1c2ccc(O)cc2Sc2ccc(Cl)cc21 [7-HYDROXYCHLORPROMAZINE]
[2]
  fractional inhibitory concentration index (FICI): 0.79
[3]
  fractional inhibitory concentration index (FICI): 0.63
[4]
  fractional inhibitory concentration index (FICI): 0.5
[1]
  MIC99: 62.2 µM (≈ 20.8 µg/mL)
[5]
  fractional inhibitory concentration index (FICI): 0.19
[7]
  fractional inhibitory concentration index (FICI): 0.75
[6]
  fractional inhibitory concentration index (FICI): 0.75

## CO[C@H]1/C=C/O[C@@]2(C)Oc3c(C)c(O)c4c(O)c(c(/C=N/N5CCN(C)CC5)c(O)c4c3C2=O)NC(=O)/C(C)=C\C=C\[C@H](C)[C@H](O)[C@@H](C)[C@@H](O)[C@@H](C)[C@H](O)[C@@H]1C [DESACETYLRIFAMPIN]
[3]
  fractional inhibitory concentration index (FICI): 0.5
[1]
  MIC99: 1.33 µM (≈ 1.04 µg/mL)

## O=C(O)c1cn(C2CC2)c2cc(N3CCNCC3)c(F)cc2c1=O [CIPROFLOXACIN]
[1]
  MIC99: 0.63 µM (≈ 0.209 µg/mL)

## CO[C@H]1/C=C/O[C@@]2(C)Oc3c(C)c(O)c4c(O)c(c(/C=N/N5CCN(C)CC5)c(O)c4c3C2=O)NC(=O)/C(C)=C\C=C\[C@H](C)[C@H](O)[C@@H](C)[C@@H](O)[C@@H](C)[C@H](OC(C)=O)[C@@H]1C [RIFAMPIN]
[1]
  MIC99: 1.26 µM (≈ 1.04 µg/mL)
